Experimental data as given in the supplement of paper PMC10307832.

How the values were obtained:
Assay in all cases: relative viability (nuclei count vs DMSO), 5 days (fraction); higher = more cells survive
Zosuquidar + Pemetrexed = compound: O[C@@H](COc1cccc2ncccc12)CN1CCN([C@@H]2c3ccccc3[C@@H]3[C@H](c4ccccc42)C3(F)F)CC1 [Zosuquidar] + Nc1nc2[nH]cc(CCc3ccc(C(=O)N[C@@H](CCC(=O)O)C(=O)O)cc3)c2c(=O)[nH]1 [Pemetrexed] (partner 0.2 µM)
Procedure, shortened: (§1)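 Lung cancer cell lines, seeded in 1536-well plates, were treated the following day by pin tool with a single drug or with five library-drug doses (not always all listed) in √10 steps on top of a fixed anchor-drug dose. Cells were fixed and nuclei stained in one step after 5 days, and nuclei were counted. Relative viability is the nuclei count for treated wells divided by that for vehicle wells, reported as medians of duplicate plates.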

Zosuquidar + Dasatinib = compound: O[C@@H](COc1cccc2ncccc12)CN1CCN([C@@H]2c3ccccc3[C@@H]3[C@H](c4ccccc42)C3(F)F)CC1 [Zosuquidar] + Cc1nc(Nc2ncc(C(=O)Nc3c(C)cccc3Cl)s2)cc(N2CCN(CCO)CC2)n1 [Dasatinib] (partner 0.075 µM)
Procedure, shortened: as §1

Cabozantinib + Foretinib = compound: COc1cc2nccc(Oc3ccc(NC(=O)C4(C(=O)Nc5ccc(F)cc5)CC4)cc3)c2cc1OC [Cabozantinib] + COc1cc2c(Oc3ccc(NC(=O)C4(C(=O)Nc5ccc(F)cc5)CC4)cc3F)ccnc2cc1OCCCN1CCOCC1 [Foretinib] (partner 0.25 µM)
Procedure, shortened: as §1

[1] = compound: COc1cc2nccc(Oc3ccc(NC(=O)C4(C(=O)Nc5ccc(F)cc5)CC4)cc3)c2cc1OC [Cabozantinib] + Nc1nc2[nH]cc(CCc3ccc(C(=O)N[C@@H](CCC(=O)O)C(=O)O)cc3)c2c(=O)[nH]1 [Pemetrexed] (partner 0.2 µM)
Procedure, shortened: as §1

| Cell Line | relative viability (Zosuquidar + Pemetrexed; first compound 0.01 µM) | relative viability (Zosuquidar + Pemetrexed; first compound 0.03162 µM) | relative viability (Zosuquidar + Pemetrexed; first compound 0.1 µM) | relative viability (Zosuquidar + Pemetrexed; first compound 0.3162 µM) | relative viability (Zosuquidar + Pemetrexed; first compound 1 µM) | relative viability (Zosuquidar + Dasatinib; first compound 0.01 µM) | relative viability (Zosuquidar + Dasatinib; first compound 0.03162 µM) | relative viability (Zosuquidar + Dasatinib; first compound 0.1 µM) | relative viability (Zosuquidar + Dasatinib; first compound 0.3162 µM) | relative viability (Zosuquidar + Dasatinib; first compound 1 µM) | relative viability (Cabozantinib + Foretinib; first compound 0.02 µM) | relative viability (Cabozantinib + Foretinib; first compound 0.06325 µM) | relative viability (Cabozantinib + Foretinib; first compound 0.2 µM) | relative viability (Cabozantinib + Foretinib; first compound 0.6325 µM) | relative viability (Cabozantinib + Foretinib; first compound 2 µM) | relative viability ([1]; first compound 0.02 µM) | relative viability ([1]; first compound 0.06325 µM) | relative viability ([1]; first compound 0.2 µM) | relative viability ([1]; first compound 0.6325 µM) | relative viability ([1]; first compound 2 µM) |
| --- | --- | --- | --- | --- | --- | --- | --- | --- | --- | --- | --- | --- | --- | --- | --- | --- | --- | --- | --- | --- |
| NCI-H3122 | 0.19 | 0.188 | 0.192 | 0.19 | 0.204 | 0.666 | 0.653 | 0.787 | 0.863 | 0.914 | 0.947 | 0.973 | 0.949 | 0.892 | 0.946 | 0.212 | 0.203 | 0.195 | 0.199 | 0.209 |
| PC-3 [JPC-3] | 1.34 | 1.04 | 0.873 | 1.1 | 0.366 | 1 | 1.02 | 0.941 | 0.927 | 0.964 | 1.19 | 1.2 | – | 1.09 | 1.04 | 0.971 | 1.43 | – | 1.07 | 1.2 |
| PC-14 | 0.119 | 0.147 | 0.134 | 0.128 | 0.142 | 0.271 | 0.223 | 0.341 | 0.303 | 0.284 | 0.99 | 1 | – | 1.05 | 0.976 | 0.113 | 0.141 | – | 0.126 | 0.129 |
| RERF-LC-KJ | 0.456 | 0.459 | 0.478 | 0.518 | 0.467 | 0.729 | 0.859 | 0.896 | 0.74 | 0.782 | 0.921 | 0.852 | 0.863 | 0.899 | 0.943 | 0.471 | 0.463 | 0.402 | 0.347 | 0.463 |
| SK-LU-1 | 0.975 | 0.795 | 1.06 | 1.03 | 0.962 | 0.191 | 0.145 | 0.194 | 0.211 | 0.189 | 0.868 | 1.01 | 0.904 | 0.845 | 0.699 | 1.1 | 1.1 | 0.9 | 0.926 | 0.9 |
| SK-MES-1 | 0.957 | 0.952 | 0.85 | 1.07 | 1.04 | 0.361 | 0.339 | 0.343 | 0.365 | 0.361 | 0.936 | 1.1 | 0.948 | 1.09 | 0.802 | 1.02 | 1.01 | 1 | 0.904 | 0.937 |
| SW 900 | 0.497 | 0.485 | – | 0.514 | 0.498 | 0.795 | 0.609 | 0.57 | 0.545 | 0.61 | 0.848 | 0.952 | 0.837 | 0.695 | 0.968 | 0.47 | 0.482 | 0.486 | 0.448 | 0.448 |
| SW 1573 | 0.781 | 0.751 | 0.952 | 0.941 | 0.786 | 0.603 | 0.437 | 0.667 | 0.456 | 0.595 | 0.966 | 0.828 | 0.984 | 1.09 | 0.964 | 0.905 | 0.815 | 0.924 | 0.951 | 0.763 |
